Test results published in US10202361B2, “Pyridazinones as herbicides” (E I DU PONT DE NEMOURS AND COMPANY, priority 2014, dated 2019).

Assays:
Assay in all cases: Test D pre-/postemergence controlled growth environment herbicide test
Type in all cases: in vivo
Details in all cases: scale 0 to 100
[1] = tested on: barley, spring (spring barley, Hordeum vulgare)
How it was run: (§1)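 Pre-emergence treatment on silt loam soil and post-emergence treatment of 1- to 4-leaf plants (2–18 cm) in peat-based medium, compounds in a non-phytotoxic solvent with surfactant. Visual rating against untreated controls after 14–21 d in a controlled environment, scale 0 (no effect) to 100 (complete control).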

[2] = tested on: blackgrass (Alopecurus myosuroides)
How it was run: as §1

[3] = tested on: bluegrass (annual bluegrass, Poa annua)
How it was run: as §1

[4] = tested on: canarygrass (Phalaris minor)
How it was run: as §1

[5] = tested on: chamomile (scentless chamomile, Matricaria inodora)
How it was run: as §1

[6] = tested on: chickweed (common chickweed, Stellaria media)
How it was run: as §1

[7] = tested on: field violet (Viola arvensis)
How it was run: as §1

[8] = tested on: lambsquarters (Chenopodium album)
How it was run: as §1

[9] = tested on: oilseed rape (Brassica napus)
How it was run: as §1

[10] = tested on: ryegrass, Italian (Italian ryegrass, Lolium multiflorum)
How it was run: as §1

[11] = tested on: wheat, spring (spring wheat, Triticum aestivum)
How it was run: as §1

Measured: Plant response rating

Cc1cc(=O)n(-c2ccc(F)cc2)nc1Oc1ccnc(C(F)(F)F)c1 [Compound 14, 2-(4-fluorophenyl)-5-methyl-6-[[2-(trifluoromethyl)-4-pyridinyl]oxy]-3 (2H)-pyridazinone]
15: [1]; Postemergence, 62 g ai/ha | [1]; Preemergence, 125 g ai/ha | [3]; Postemergence, 16 g ai/ha | [3]; Postemergence, 125 g ai/ha | [4]; Postemergence, 16 g ai/ha | [4]; Postemergence, 31 g ai/ha | [4]; Postemergence, 62 g ai/ha | [9]; Postemergence, 62 g ai/ha | [9]; Preemergence, 125 g ai/ha | [10]; Postemergence, 125 g ai/ha | [10]; Postemergence, 250 g ai/ha | [10]; Preemergence, 125 g ai/ha | [11]; Postemergence, 62 g ai/ha | [11]; Postemergence, 125 g ai/ha | [11]; Postemergence, 250 g ai/ha | [11]; Preemergence, 250 g ai/ha
5: [1]; Postemergence, 16 g ai/ha | [1]; Preemergence, 16 g ai/ha | [1]; Preemergence, 62 g ai/ha | [1]; Preemergence, 250 g ai/ha | [2]; Postemergence, 16 g ai/ha | [3]; Preemergence, 16 g ai/ha | [4]; Preemergence, 16 g ai/ha | [4]; Preemergence, 31 g ai/ha | [5]; Postemergence, 16 g ai/ha | [5]; Preemergence, 16 g ai/ha | [8]; Preemergence, 16 g ai/ha | [9]; Preemergence, 31 g ai/ha | [10]; Postemergence, 16 g ai/ha | [10]; Postemergence, 31 g ai/ha | [11]; Postemergence, 16 g ai/ha
85: [5]; Preemergence, 125 g ai/ha | [7]; Preemergence, 16 g ai/ha
80: [4]; Preemergence, 250 g ai/ha | [5]; Preemergence, 250 g ai/ha | [8]; Postemergence, 125 g ai/ha
95: [6]; Preemergence, 250 g ai/ha | [7]; Preemergence, 31 g ai/ha | [7]; Preemergence, 125 g ai/ha | [8]; Preemergence, 125 g ai/ha | [8]; Preemergence, 250 g ai/ha
70: [2]; Preemergence, 250 g ai/ha | [6]; Postemergence, 125 g ai/ha | [7]; Postemergence, 31 g ai/ha | [8]; Postemergence, 62 g ai/ha | [9]; Preemergence, 250 g ai/ha
0: [2]; Preemergence, 16 g ai/ha | [2]; Preemergence, 31 g ai/ha | [3]; Preemergence, 31 g ai/ha | [3]; Preemergence, 62 g ai/ha | [9]; Preemergence, 16 g ai/ha | [10]; Preemergence, 16 g ai/ha | [10]; Preemergence, 31 g ai/ha | [10]; Preemergence, 62 g ai/ha | [11]; Preemergence, 16 g ai/ha | [11]; Preemergence, 31 g ai/ha | [11]; Preemergence, 62 g ai/ha
60: [6]; Postemergence, 31 g ai/ha | [7]; Postemergence, 16 g ai/ha | [8]; Postemergence, 31 g ai/ha
10: [1]; Postemergence, 31 g ai/ha | [1]; Preemergence, 31 g ai/ha | [2]; Postemergence, 31 g ai/ha | [2]; Postemergence, 62 g ai/ha | [2]; Postemergence, 125 g ai/ha | [2]; Postemergence, 250 g ai/ha | [2]; Preemergence, 62 g ai/ha | [3]; Preemergence, 125 g ai/ha | [5]; Postemergence, 31 g ai/ha | [5]; Postemergence, 62 g ai/ha | [5]; Preemergence, 31 g ai/ha | [6]; Preemergence, 16 g ai/ha | [9]; Preemergence, 62 g ai/ha | [10]; Postemergence, 62 g ai/ha | [11]; Postemergence, 31 g ai/ha | [11]; Preemergence, 125 g ai/ha
45: [6]; Postemergence, 62 g ai/ha | [9]; Postemergence, 125 g ai/ha
65: [7]; Postemergence, 62 g ai/ha
35: [3]; Preemergence, 250 g ai/ha | [4]; Preemergence, 125 g ai/ha
100: [6]; Preemergence, 125 g ai/ha | [7]; Postemergence, 125 g ai/ha | [7]; Postemergence, 250 g ai/ha | [7]; Preemergence, 62 g ai/ha | [7]; Preemergence, 250 g ai/ha
90: [6]; Postemergence, 250 g ai/ha | [8]; Postemergence, 250 g ai/ha
25: [4]; Postemergence, 250 g ai/ha | [5]; Postemergence, 250 g ai/ha | [5]; Preemergence, 62 g ai/ha | [8]; Preemergence, 31 g ai/ha | [9]; Postemergence, 16 g ai/ha | [10]; Preemergence, 250 g ai/ha
30: [3]; Postemergence, 250 g ai/ha
50: [6]; Postemergence, 16 g ai/ha | [9]; Postemergence, 31 g ai/ha
20: [1]; Postemergence, 125 g ai/ha | [1]; Postemergence, 250 g ai/ha | [2]; Preemergence, 125 g ai/ha | [3]; Postemergence, 31 g ai/ha | [3]; Postemergence, 62 g ai/ha | [4]; Postemergence, 125 g ai/ha | [4]; Preemergence, 62 g ai/ha | [5]; Postemergence, 125 g ai/ha | [8]; Preemergence, 62 g ai/ha
55: [8]; Postemergence, 16 g ai/ha | [9]; Postemergence, 250 g ai/ha
